Patent publication US8993756B2 (Merck Sharp & Dohme Corp., priority 2011, dated 2015)

Columns and labels:
JAK3 = JAK3 (Homo sapiens (Human), UniProt P52333); assay: Jak Biochemical HTRF Assay (JAK3); conditions: recombinant GST-tagged catalytic domain, [ATP] 2.9 μM
JAK2 = JAK2 (Homo sapiens (Human), UniProt O60674); assay: Jak Biochemical HTRF Assay (JAK2); conditions: recombinant GST-tagged catalytic domain, [ATP] 8.5 μM
Sequence of JAK2 (O60674 849-1124): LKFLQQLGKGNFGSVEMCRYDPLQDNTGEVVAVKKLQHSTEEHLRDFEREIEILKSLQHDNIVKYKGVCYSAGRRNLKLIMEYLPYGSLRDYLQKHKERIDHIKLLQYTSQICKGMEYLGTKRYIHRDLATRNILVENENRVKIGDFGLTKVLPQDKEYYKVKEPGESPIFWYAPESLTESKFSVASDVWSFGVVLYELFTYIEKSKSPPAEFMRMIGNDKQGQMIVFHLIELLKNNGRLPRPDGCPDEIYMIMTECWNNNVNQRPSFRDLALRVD

Sequence of JAK3 (P52333 822-1111): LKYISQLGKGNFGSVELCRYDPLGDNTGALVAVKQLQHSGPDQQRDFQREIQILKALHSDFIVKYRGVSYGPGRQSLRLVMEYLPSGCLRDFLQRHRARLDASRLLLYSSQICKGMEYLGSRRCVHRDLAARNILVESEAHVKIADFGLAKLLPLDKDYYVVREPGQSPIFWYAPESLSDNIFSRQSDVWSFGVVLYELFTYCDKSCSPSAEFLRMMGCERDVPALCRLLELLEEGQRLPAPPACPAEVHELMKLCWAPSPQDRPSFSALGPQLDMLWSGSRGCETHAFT

Question: What does the source list for `CCOC(=O)c1c[nH]c2ncnc(-c3cccc(NC(=O)c4c[nH]c(=O)[nH]c4=O)c3)c12` [Example 5-18, ethyl 4-(3-{[(2,4-dioxo-1,2,3,4-tetrahydropyrimidin-5-yl)carbonyl]amino}phenyl)-7H-pyrrolo[2,3-d]pyrimidine-5-carboxylate]?
Answer: IC50 (JAK3; given as range class): 10 to 500 nM; IC50 (JAK2; given as range class): > 500 nM

Question: `CCOC(=O)c1c[nH]c2ncnc(-c3cnc(OC)nc3)c12` [Example 1-91, ethyl 4-(2-methoxypyrimidin-5-yl)-7H-pyrrolo[2,3-d]pyrimidine-5-carboxylate] was tested. Which IC50 (JAK3; given as range class) did it give?
Answer: The IC50 was 10 to 500 nM.

Question: What about the IC50 (JAK2; given as range class) of the same molecule?
Answer: The IC50 was > 500 nM.

Question: Which results are given for `C=C(CO)C(=O)Nc1cccc(-c2ncnc3[nH]cc(C(=O)OCC)c23)c1` [Example 15-2, Ethyl-4-(3-{[2-(hydroxymethyl)acryloyl]amino}phenyl)-7H-pyrrolo[2,3-d]pyrimidine-5-carboxylate]?
Answer: IC50 (JAK3): 0.02 nM; IC50 (JAK2): > 1500 nM

Question: Which IC50 (JAK3; given as range class) does the source give for `CCOC(=O)c1c[nH]c2ncnc(-c3cccc4ccsc34)c12` [Example 1-61, ethyl 4-(1-benzothiophen-7-yl)-7H-pyrrolo[2,3-d]pyrimidine-5-carboxylate] here?
Answer: Its IC50 is 10 to 500 nM.

Question: What about the IC50 (JAK2; given as range class) of the same molecule?
Answer: The IC50 was > 500 nM.

Question: Which IC50 (JAK3; given as range class) does the source give for `CCOC(=O)c1c[nH]c2ncnc(-c3cccc(Nc4nc(C#N)ns4)c3)c12` [Example 6-4, ethyl 4-{3-[(3-cyano-1,2,4-thiadiazol-5-yl)amino]phenyl}-7H-pyrrolo[2,3-d]pyrimidine-5-carboxylate] here?
Answer: The IC50 was 10 to 500 nM.

Question: What about the IC50 (JAK2; given as range class) of the same molecule?
Answer: Its IC50 is > 500 nM.

Question: With `C=C(C)C(=O)Nc1cccc(-c2ncnc3[nH]cc(-c4cccnc4)c23)c1` [Example 21-4, N-(3-(5-(pyridin-3-yl)-7H-pyrrolo[2,3-d]pyrimidin-4-yl)phenyl)methacrylamide] as the molecule, how does the IC50 (JAK3) read?
Answer: Its IC50 is 9.7 nM.

Question: And the IC50 (JAK2)?
Answer: The IC50 was > 1500 nM.

Question: `CCOC(=O)c1c[nH]c2ncnc(-c3ccc(CO)nc3)c12` [Example 1-58, ethyl 4-[6-(hydroxymethyl)pyridin-3-yl]-7H-pyrrolo[2,3-d]pyrimidine-5-carboxylate] was tested. Which IC50 (JAK3; given as range class) did it give?
Answer: Its IC50 is 10 to 500 nM.

Question: And the IC50 (JAK2; given as range class)?
Answer: The IC50 was > 500 nM.

Question: How did the IC50 (JAK3) turn out when `C=CC(=O)N1CCc2ccc(-c3ncnc4[nH]cc(C(=O)OCC)c34)cc21` [Example 4-20, ethyl 4-(1-acryloyl-2,3-dihydro-1H-indol-6-yl)-7H-pyrrolo[2,3-d]pyrimidine-5-carboxylate] was run?
Answer: Its IC50 is 0.081 nM.

Question: What about the IC50 (JAK2) of the same molecule?
Answer: Its IC50 is > 1500 nM.

Question: With `C=C(C)C(=O)Nc1cccc(-c2ncnc3[nH]cc(-c4cccc(C)c4)c23)c1` [Example 20-1, 2-Methyl-N-{3-[5-(3-methylphenyl)-7H-pyrrolo[2,3-d]pyrimidin-4-yl]phenyl}prop-2-enamide] as the molecule, how does the IC50 (JAK3) read?
Answer: Its IC50 is 0.17 nM.

Question: And the IC50 (JAK2)?
Answer: The IC50 was > 1500 nM.

Question: For `COc1ccc(F)cc1-c1c[nH]c2ncnc(-c3ccccc3)c12` [Example 33-3, 5-(5-fluoro-2-methoxyphenyl)-4-phenyl-7H-pyrrolo[2,3-d]pyrimidine], which IC50 (JAK3) is on record?
Answer: Its IC50 is 1.4 nM.

Question: What about the IC50 (JAK2) of the same molecule?
Answer: The IC50 was 71 nM.

Question: What does the source list for `CCOC(=O)c1c[nH]c2ncnc(C3=CCCN(C(=O)OC(C)(C)C)C3)c12` [Example 1-19, ethyl 4-[1-(tert-butoxycarbonyl)-1,2,5,6-tetrahydropyridin-3-yl]-7H-pyrrolo[2,3-d]pyrimidine-5-carboxylate]?
Answer: IC50 (JAK3; given as range class): 10 to 500 nM; IC50 (JAK2; given as range class): > 500 nM

Question: Which IC50 (JAK3) does the source give for `C=C(C)C(=O)Nc1cccc(-c2ncnc3[nH]cc(C(=O)OCC)c23)c1F` [Example 4-2, Ethyl 4-{2-fluoro-3-[(2-methylacryloyl)amino]phenyl}-7H-pyrrolo[2,3-d]pyrimidine-5-carboxylate] here?
Answer: The IC50 was 4 nM.

Question: And the IC50 (JAK2)?
Answer: The IC50 was > 1500 nM.

Question: With `CCOC(=O)c1c[nH]c2ncnc(-c3csc4ccccc34)c12` [Example 1-71, ethyl 4-(1-benzothiophen-3-yl)-7H-pyrrolo[2,3-d]pyrimidine-5-carboxylate] as the molecule, how does the IC50 (JAK3; given as range class) read?
Answer: The IC50 was 10 to 500 nM.

Question: What about the IC50 (JAK2; given as range class) of the same molecule?
Answer: The IC50 was > 500 nM.

Question: Which results are given for `CCOC(=O)c1c[nH]c2ncnc(-c3ccc(C#N)cc3)c12` [Example 1-10, ethyl 4-(4-cyanophenyl)-7H-pyrrolo[2,3-d]pyrimidine-5-carboxylate]?
Answer: IC50 (JAK3; given as range class): 10 to 500 nM; IC50 (JAK2; given as range class): > 500 nM

Question: Which IC50 (JAK3; given as range class) does the source give for `C/C=C(/OC)C(=O)Nc1cccc(-c2ncnc3[nH]cc(C(=O)OCC)c23)c1` [Example 5-38, ethyl 4-(3-{[(2E)-2-methoxybut-2-enoyl]amino}phenyl)-7H-pyrrolo[2,3-d]pyrimidine-5-carboxylate] here?
Answer: Its IC50 is 10 to 500 nM.

Question: What about the IC50 (JAK2; given as range class) of the same molecule?
Answer: The IC50 was > 500 nM.

Question: What does the source list for `CCOC(=O)c1c[nH]c2ncnc(-c3ccc4c(c3)CN(C(=O)OC(C)(C)C)CC4)c12` [Example 1-78, tert-butyl 7-[5-(ethoxycarbonyl)-7H-pyrrolo[2,3-d]pyrimidin-4-yl]-3,4-dihydroisoquinoline-2(1H)-carboxylate]?
Answer: IC50 (JAK3; given as range class): 10 to 500 nM; IC50 (JAK2; given as range class): > 500 nM

Question: What does the source list for `C=CC(=O)Nc1cccc(-c2ncnc3[nH]cc(-c4ccccc4)c23)c1` [Example 20-9, N-[3-(5-phenyl-7H-pyrrolo[2,3-d]pyrimidin-4-yl)phenyl]prop-2-enamide]?
Answer: IC50 (JAK3): 0.016 nM; IC50 (JAK2): > 1500 nM

Question: Which IC50 (JAK3) does the source give for `C=C(C)C(=O)Nc1cccc(-c2ncnc3[nH]cc(-c4ccccc4C)c23)c1` [Example 20-6, 2-methyl-N-{3-[5-(2-methylphenyl)-7H-pyrrolo[2,3-d]pyrimidin-4-yl]phenyll}prop-2-enamide] here?
Answer: The IC50 was 5.2 nM.

Question: What about the IC50 (JAK2) of the same molecule?
Answer: The IC50 was > 1500 nM.

Question: For `CCOC(=O)c1c[nH]c2ncnc(-c3cccc(O)c3)c12` [Example 1-45, ethyl 4-(3-hydroxyphenyl)-7H-pyrrolo[2,3-d]pyrimidine-5-carboxylate], which IC50 (JAK3) is on record?
Answer: Its IC50 is 5.6 nM.

Question: And the IC50 (JAK2)?
Answer: The IC50 was 127 nM.

Question: What does the source list for `CCOC(=O)c1c[nH]c2ncnc(-c3cccc(NC(=O)C4(C)CO4)c3)c12` (stereo not drawn) [Example 18-1, Ethyl-4-(3-(2-methyloxirane-2-carboxamido)phenyl)-7H-pyrrolo[2,3-d]pyrimidine-5-carboxylate]?
Answer: IC50 (JAK3): 0.056 nM; IC50 (JAK2): > 1500 nM

Question: For `C=C(CNC(C)=O)C(=O)Nc1cccc(-c2ncnc3[nH]cc(C(=O)OCC)c23)c1` [Example 13-3, ethyl 4-(3-(2-(acetamidomethyl)acrylamido)phenyl)-7H-pyrrolo[2,3-d]pyrimidine-5-carboxylate], which IC50 (JAK3; given as range class) is on record?
Answer: The IC50 was < 10 nM.

Question: What about the IC50 (JAK2) of the same molecule?
Answer: Its IC50 is > 1500 nM.

Question: Which IC50 (JAK3; given as range class) does the source give for `C=C(C)C(=O)Nc1cccc(-c2ncnc3[nH]cc(-c4c(C)cc(C)cc4C)c23)c1` [Example 20-8, 2-methyl-N-{3-[5-(2,4,6-trimethylphenyl)-7H-pyrrolo[2,3-d]pyrimidin-4-yl]phenyll}prop-2-enamide] here?
Answer: Its IC50 is 10 to 500 nM.

Question: And the IC50 (JAK2; given as range class)?
Answer: Its IC50 is > 500 nM.

Question: What does the source list for `C=C(C)C(=O)Nc1cccc(-c2ncnc3[nH]cc(C4CCCO4)c23)c1` (stereo not drawn) [Example 25, N-(3-(5-(Tetrahydrofuran-2-yl)-7H-pyrrolo[2,3-d]pyrimidin-4-yl)phenyl)methacrylamide]?
Answer: IC50 (JAK3; given as range class): 10 to 500 nM; IC50 (JAK2; given as range class): > 500 nM

Question: What does the source list for `CCOC(=O)c1c[nH]c2ncnc(-c3cccc(N)c3)c12` [Example 1-3, Ethyl 4-(3-aminophenyl)-7H-pyrrolo[2,3-d]pyrimidine-5-carboxylate]?
Answer: IC50 (JAK3; given as range class): 10 to 500 nM; IC50 (JAK2; given as range class): > 500 nM

Question: How did the IC50 (JAK3) turn out when `CCOC(=O)c1c[nH]c2ncnc(-c3cccc(C)c3)c12` [Example 1-46, ethyl 4-(3-methylphenyl)-7H-pyrrolo[2,3-d]pyrimidine-5-carboxylate] was run?
Answer: Its IC50 is 7.6 nM.

Question: And the IC50 (JAK2)?
Answer: The IC50 was 143 nM.

Question: What does the source list for `C=C(C)C(=O)Nc1cccc(-c2ncnc3[nH]cc(-c4cccc(F)c4Cl)c23)c1` [Example 20-5, N-{3-[5-(2-chloro-3-fluorophenyl)-7H-pyrrolo[2,3-d]pyrimidin-4-yl]phenyl}-2-methylprop-2-enamide]?
Answer: IC50 (JAK3): 1.5 nM; IC50 (JAK2): > 1500 nM

Question: What does the source list for `COc1ccccc1-c1c[nH]c2ncnc(-c3ccccc3)c12` [Example 33-1, 5-(2-Methoxyphenyl)-4-phenyl-7H-pyrrolo[2,3-d]pyrimidine]?
Answer: IC50 (JAK3): 3.4 nM; IC50 (JAK2): 183 nM
